In patent US5663197A, “2-(1-hydroxyethyl)-5-hydroxynaphtho[2,3-b]furan-4,9-dione and antitumor agents comprising this compound” (priority 1992, dated 1997):
≈ marks a conversion by molar mass, not a printed value.

What was measured:
[1] = test system: Human prostate cancer LNCaP cells; assay: In vitro antitumor test (trypan blue exclusion viable cell count), LNCaP; assay type: cell-based
Description: (§1) An appropriate amount of NFD was dissolved in DMSO to give a 1.0 mg/ml stock solution, which was diluted as necessary before use.
(§2) The following cells in the late logarithmic phase were harvested after treatment with trypsin (containing 0.25% trypsin and 0.02% EDTA; 37° C., 3 min) and used in the test: human lung adenocarcinoma cell lines A-549, VMRC-LCD and SK-LU-1, human lung squamous cell carcinoma Calu-1 cells, human colon adenocarcinoma WiDr cells, human prostate cancer LNCaP cells, human vaginal squamous cell carcinoma A-431 cells, human cervical carcinoma HeLa cells, human cholangiocarcinoma HuCC-T1 cells, mouse skin cancer melanoma B16 (M4) cells, human pancreatic carcinoma ASPC-1 cells, human neuroblastoma IMR-132 cells, human lung small cell carcinoma SCCH-194 cells, human uninary bladder carcinoma T24 cells, human renal cell carcinoma […] cells, human gastric cancer NUGC-2 cells, human thyroid carcinoma 8305C cells, human hepatoma HUH-7 cells, human ovarian carcinoma TYK-nu cells and human chorio carcinoma BeWo cells. Suspension cultures of human breast cancer MRK-nu-1 cells, human malignant B-cell lymphoma cells and human chronic myelogenous leukemia K562 cells were used to harvest the cells to be used in the test. […] These cells were plated onto a 96-well microplate at a density of 5-10×10^3 cells/cm^2 using DMEM or RPMI-1640 medium containing 10% fetal bovine serum and cultured for 24 hours in a conventional manner, after which a pre-determined amount of NFD dissolved in DMSO was added to each well. Cultivation was continued, and the number of viable cells was counted after 24, 48 and 72 hours. […]
(§3) Growth inhibitory action and lethal activity of NFD on various types of malignant tumor cells and normal human cells listed above were evaluated by counting the number of viable cells in each well of the 96-well microplate. […]

[2] = test system: Human uninary bladder carcinoma T24 cells; assay: In vitro antitumor test (trypan blue exclusion viable cell count), T24; assay type: cell-based
Description: as §1
as §2, with “cells.” for “cells. Suspension cultures of human breast cancer MRK-nu-1 cells, human malignant B-cell lymphoma cells and human chronic myelogenous leukemia K562 cells were used to harvest the cells to be used in the test.”, “well.” for “well. Cultivation was continued, and the number of viable cells was counted after 24, 48 and 72 hours.”

[3] = test system: Human colon adenocarcinoma WiDr cells; assay: In vitro antitumor test (trypan blue exclusion viable cell count), WiDr; assay type: cell-based
Description: as §1, §2, §3

[4] = test system: Human cholangiocarcinoma HuCC-T1 cells; assay: In vitro antitumor test (trypan blue exclusion viable cell count), HuCC-T1; assay type: cell-based
Description: as §1
as §2, with “cells.” for “cells. Suspension cultures of human breast cancer MRK-nu-1 cells, human malignant B-cell lymphoma cells and human chronic myelogenous leukemia K562 cells were used to harvest the cells to be used in the test.”, “well.” for “well. Cultivation was continued, and the number of viable cells was counted after 24, 48 and 72 hours.”

[5] = test system: Human cervical carcinoma HeLa cells; assay: In vitro antitumor test (trypan blue exclusion viable cell count), HeLa; assay type: cell-based
Description: as §1
as §2, with “cells.” for “cells. Suspension cultures of human breast cancer MRK-nu-1 cells, human malignant B-cell lymphoma cells and human chronic myelogenous leukemia K562 cells were used to harvest the cells to be used in the test.”, “well.” for “well. Cultivation was continued, and the number of viable cells was counted after 24, 48 and 72 hours.”

Solubility = assay type: physicochemical
[6] = test system: Human lung adenocarcinoma A-549 cells; assay: In vitro antitumor test (trypan blue exclusion viable cell count), A-549; assay type: cell-based; settings: A549, 72 h, three days exposure, read-out: LD50 (IC50), 50% growth-inhibitory dose
Description: as §1
as §2, with “cells.” for “cells. Suspension cultures of human breast cancer MRK-nu-1 cells, human malignant B-cell lymphoma cells and human chronic myelogenous leukemia K562 cells were used to harvest the cells to be used in the test.”, “well.” for “well. Cultivation was continued, and the number of viable cells was counted after 24, 48 and 72 hours.”

[7] = test system: Human renal cell carcinoma VMRC-RCW cells; assay: In vitro antitumor test (trypan blue exclusion viable cell count), VMRC-RCW; assay type: cell-based
Description: as §1, §2, §3

[8] = test system: Human chronic myelogenous leukemia K562 cells; assay: In vitro antitumor test (trypan blue exclusion viable cell count), K562; assay type: cell-based; settings: 72 h, three days exposure, read-out: LD50 (IC50), 50% growth-inhibitory dose
Description: as §1
as §2, with “cells.” for “cells. Suspension cultures of human breast cancer MRK-nu-1 cells, human malignant B-cell lymphoma cells and human chronic myelogenous leukemia K562 cells were used to harvest the cells to be used in the test.”, “well.” for “well. Cultivation was continued, and the number of viable cells was counted after 24, 48 and 72 hours.”

[9] = test system: Human chorio carcinoma BeWo cells; assay: In vitro antitumor test (trypan blue exclusion viable cell count), BeWo; assay type: cell-based
Description: as §1
as §2, with “cells.” for “cells. Suspension cultures of human breast cancer MRK-nu-1 cells, human malignant B-cell lymphoma cells and human chronic myelogenous leukemia K562 cells were used to harvest the cells to be used in the test.”, “well.” for “well. Cultivation was continued, and the number of viable cells was counted after 24, 48 and 72 hours.”

[10] = 72 h, three days exposure, read-out: LD50 (IC50), 50% growth-inhibitory dose

Q: For CC(O)c1cc2c(o1)C(=O)c1cccc(O)c1C2=O (stereo not shown) [NFD, 2-(1-hydroxyethyl)-5-hydroxynaphtho[2,3-b]furan-4,9-dione], which “concentration causing necrosis in almost all tumor cells” value (shortened to “concentration causing necrosis”) ([1]; FIG. 6 (LNCaP; sentence prints human colon adenocarcinoma cells)) is on record?
A: Its value is 22.4 to 55.9 ng/mL.

Q: What about the IC (almost complete) ([1]; FIG. 6 (LNCaP; sentence prints human colon adenocarcinoma cells), read-out: concentration inhibiting growth almost completely) of the same compound?
A: Its IC (almost complete) is 0.0112 µg/mL.

Q: What about the IC50 ([1]; Homo sapiens, 72 h, LNCaP, three days exposure, read-out: LD50 (IC50), 50% growth-inhibitory dose) of the same compound?
A: Its IC50 is 0.0017 µg/mL (≈ 0.00658 µM).

Q: What about the IC50 ([2]; T-24, 72 h, T24, three days exposure, read-out: LD50 (IC50), 50% growth-inhibitory dose) of the same compound?
A: Its IC50 is 0.021 µg/mL (≈ 0.0813 µM).

Q: What about the IC (almost complete) ([2]; T-24, FIG. 16, read-out: concentration inhibiting growth almost completely) of the same compound?
A: Its IC (almost complete) is 0.023 µg/mL.

Q: What about the “concentration causing necrosis” value ([3]; FIG. 5) of the same compound?
A: The value was 44.7 to 55.9 ng/mL.

Q: What about the IC50 ([3]; Homo sapiens, 72 h, WiDr, three days exposure, read-out: LD50 (IC50), 50% growth-inhibitory dose) of the same compound?
A: The IC50 was 0.011 µg/mL (≈ 0.0426 µM).

Q: What about the IC (almost complete) ([3]; Homo sapiens, WiDr, FIG. 5, read-out: concentration inhibiting growth almost completely) of the same compound?
A: The IC (almost complete) was 0.0224 to 0.0335 µg/mL.

Q: What about the IC50 ([4]; HuCCT-1, 72 h, HuCC-T1, three days exposure, read-out: LD50 (IC50), 50% growth-inhibitory dose) of the same compound?
A: Its IC50 is 0.02 µg/mL (≈ 0.0775 µM).

Q: What about the IC (almost complete) ([4]; HuCCT-1, FIG. 9, read-out: concentration inhibiting growth almost completely) of the same compound?
A: Its IC (almost complete) is 0.0224 µg/mL.

Q: And the IC50 [5, 10]?
A: Its IC50 is 0.018 µg/mL (≈ 0.0697 µM).

Q: What about the IC (almost complete) ([5]; FIG. 8, read-out: concentration inhibiting growth almost completely) of the same compound?
A: The IC (almost complete) was 0.0224 µg/mL.

Q: And the solubility in chloroform (Solubility; chloroform)?
A: Its solubility in chloroform is “freely soluble”.

Q: What about the solubility in dimethylsulfoxide (Solubility; dimethylsulfoxide) of the same compound?
A: Its solubility in dimethylsulfoxide is “freely soluble”.

Q: What about the solubility in water (Solubility; water) of the same compound?
A: The solubility in water was “slightly soluble”.

Q: What about the IC50 [6] of the same compound?
A: The IC50 was 0.0095 µg/mL (≈ 0.0368 µM).

Q: And the “concentration causing necrosis” value ([7]; FIG. 17)?
A: The value was 50 ng/mL.

Q: What about the IC50 ([7]; Homo sapiens, 72 h, VMRC-RCW, three days exposure, read-out: LD50 (IC50), 50% growth-inhibitory dose) of the same compound?
A: Its IC50 is 0.019 µg/mL (≈ 0.0736 µM).

Q: What about the IC (almost complete) ([7]; Homo sapiens, FIG. 17, read-out: concentration inhibiting growth almost completely) of the same compound?
A: The IC (almost complete) was 0.017 µg/mL.

Q: What about the IC50 [8] of the same compound?
A: The IC50 was 0.014 µg/mL (≈ 0.0542 µM).

Q: What about the IC50 [9, 10] of the same compound?
A: Its IC50 is 0.018 µg/mL (≈ 0.0697 µM).

Q: What about the IC (almost complete) ([9]; FIG. 23, read-out: concentration inhibiting growth almost completely) of the same compound?
A: Its IC (almost complete) is 0.0343 µg/mL.
